Results taken from US8309769B2, “Crystalline forms of 2-[2-chloro-4-methylsulfony1-3-(2,2,2-trifluoroethoxymethyl)benzoyl]cyclohexan-1,3-dione” (BASF SE, priority 2007, dated 2012).

Type: physicochemical
Protocol: The form in question or mixtures of different forms of tembotrione were suspended in a mixture of methanol with water (volume ratio methanol:water 1:9) at temperatures in the range from 10 to 30° C., and the temperature varied cyclically at a rate of 0.33 K min^−1.

CS(=O)(=O)c1ccc(C(=O)C2C(=O)CCCC2=O)c(Cl)c1COCC(F)(F)F [form B, 2-[2-chloro-4-methylsulfonyl-3-(2,2,2-trifluoro-ethoxymethyl)benzoyl]cyclohexan-1,3-dione]
stability against phase change: modification found after 3 days: converted completely into modification C

CS(=O)(=O)c1ccc(C(=O)C2C(=O)CCCC2=O)c(Cl)c1COCC(F)(F)F [form A, 2-[2-chloro-4-methylsulfonyl-3-(2,2,2-trifluoro-ethoxymethyl)benzoyl]cyclohexan-1,3-dione]
stability against phase change: modification found after 8 days: unchanged

CS(=O)(=O)c1ccc(C(=O)C2C(=O)CCCC2=O)c(Cl)c1COCC(F)(F)F [mixture of forms A, B and C, 2-[2-chloro-4-methylsulfonyl-3-(2,2,2-trifluoro-ethoxymethyl)benzoyl]cyclohexan-1,3-dione]
stability against phase change: modification found after 2 days: converted into form A
